The subject of one data set is platelets. Nature of the data set: epinephrine-induced platelet aggregation. Type of data set: cell-based, human. An excerpt:
During the study, optical density was continuously recorded.

In data set [1] the test system is blood vessels. Nature of the data set: inhibition of contraction.
Another data set relates to rat brain. Nature of the data set: infarct volume after middle cerebral artery occlusion (MCAO). Type of data set: in vivo. How it is done:
Adult male rats weighing 200-250 g were anesthetized. Focal cerebral ischemia was induced by ligature of the left common carotid artery and occlusion of the ipsilateral distal middle cerebral artery (MCAO). […] Rats subjected to sham MCAO operation served as control. To determine infarct volume, the brains were removed 48 hours after MCAO and a series of coronal brain slices were obtained and stained with 1% 2,3,5-triphenyl-tetrazolium chloride in 0.1M phosphate buffer. The infarct volume was determined by adding the infarct volumes, which were unstained by the dye.

Data set [2] has as its system blood vessels. The data set can be described thus: vasodilation of blood vessels.
The next data set deals with NO production. Nature of the data set: stimulation of NO production.
The next data set has as its system β-amyloid. The data set can be described thus: inhibition of β-amyloid.
The conditions of data set [3]: patients; cited from earlier work.
The conditions of data set [4]: cited from earlier work.
Data set [5] relates to human platelets. The data set can be described thus: ADP-induced human platelet aggregation, preincubation with drug. It is filed as cell-based. The note with it: data not shown. How it is done: (§1) 500 microliter of whole blood was diluted with equal volume of 0.9% sodium chloride and prewarmed at 37° C. for 5 minutes. For optical studies, platelet rich plasma blood was mixed gently and immediately centrifuged at 180 g for 10 min to obtain platelet-rich plasma (PRP). Platelet poor plasma (PPP) was obtained by centrifugation at 1800 g for 15 minutes at room temperature. The platelet concentration in the PRP was adjusted to approximately 250×10^9 cells/l using PPP. Readings were taken at 37° C. at a stirring speed of 1200 rpm.
Aggregation agonists were used at a final concentration of 2.0×10^−5 M for ADP, 0.19 mg/ml for collagen, 500 μg/ml for arachidonic acid, and 1×10^−4 M for epinephrine. During the study, optical density was continuously recorded. The 0% and 100% aggregation levels were set with PRP and PPP, respectively. The maximal percentage of platelet aggregation was calculated as the light transmission between platelet-rich and platelet-poor plasma (100%). When a stable baseline was obtained with 450 μl of PRP, 50 μl of one of the aggregation-inducing agents was added. The maximum height and slope of the aggregation curves were determined. After the electrode was immersed in the sample, platelet aggregation to various agonists (collagen, ADP, arachidonic acid or epinephrine) was measured in ohms of impedance. […]

For data set [6], the system named is human platelets. The data set can be described thus: collagen-induced human platelet aggregation, preincubation with drug. It is filed as cell-based. The settings on record: 15 min preincubation; for peak aggregation: collagen (baseline around 89%). As to the method: as §1
Aggregation agonists were used at a final concentration of 2.0×10^−5 M for ADP, 0.19 mg/ml for collagen, 500 μg/ml for arachidonic acid, and 1×10^−4 M for epinephrine. During the study, optical density was continuously recorded. The 0% and 100% aggregation levels were set with PRP and PPP, respectively. The maximal percentage of platelet aggregation was calculated as the light transmission between platelet-rich and platelet-poor plasma (100%). When a stable baseline was obtained with 450 μl of PRP, 50 μl of one of the aggregation-inducing agents was added. The maximum height and slope of the aggregation curves were determined. After the electrode was immersed in the sample, platelet aggregation to various agonists (collagen, ADP, arachidonic acid or epinephrine) was measured in ohms of impedance. The lag phase was defined as the delay time occurring between the addition of collagen and the beginning of the aggregation curve.
Blood samples were preincubated in 50 μM or 100 μM rasagiline, a MAO-B inhibitor, for 15 minutes and aggregation stimulated using collagen. […] Aggregation onset was also delayed by treatment with rasagiline.

Molecules are shown by their SMILES.

Usually inhibition stands for how much of the control response was suppressed. Low readings indicate little suppression, high ones strong suppression.

For the molecule `C#CCN(C)[C@H](C)Cc1ccccc1` [1-deprenyl, L-deprenyl], the “platelet aggregation induced by epinephrine” value in the data set on platelets is given as “inhibited the platelet aggregation”. For the same molecule, the “ability to inhibit contraction” value in the data set on blood vessels [1] is listed as “inhibit contraction”. Moreover, the “blood vessel disruption and bleeding” value with rat brain (following 1-deprenyl administration) is on record as “reduced”. In addition, the “ability to dilate blood vessels” value in the data set with blood vessels [2] is “dilate blood vessels”. Moreover, in the data set on blood vessels [2] (low doses), the “dose causing rapid NO-mediated endothelium-dependent vasodilation” value is ≤ 10 µM. For the same molecule, in the data set with NO production, the “ability to stimulate NO production” value is reported as “stimulate NO production” and the “lowest concentration with stimulatory effect on NO production” value came to 1 µM. Further, the “ability to inhibit β-amyloid” value in the data set on β-amyloid was “inhibit β-amyloid”.

`Cl.NCCNC(=O)c1ccc(Cl)cc1` [RO-16-6491, N-(2-aminoethyl)4-chlorobenzamide hydrochloride]: the “ability to inhibit contraction” value with blood vessels [1] is reported as “inhibit contraction”. For the same molecule, the “ability to dilate blood vessels” value in the data set with blood vessels [2] was “dilate blood vessels”. Further, the “ability to stimulate NO production” value in the data set with NO production is listed as “stimulate NO production”. Also, the “ability to inhibit β-amyloid” value with β-amyloid is given as “inhibit β-amyloid”.

Consider `Cl.NCCNC(=O)c1ncsc1-c1cccc(F)c1` [RO-41-1049, N-(2-aminoethyl)-5-(3-fluorophenyl)-4-thiazolecarboxamide hydro-chloride], for which, in the data set with blood vessels [1], the “ability to inhibit contraction” value is reported as “inhibit contraction”. Besides, the “ability to dilate blood vessels” value in the data set with blood vessels [2] is “dilate blood vessels”. Also, the “ability to stimulate NO production” value in the data set on NO production is listed as “stimulate NO production”. The “ability to inhibit β-amyloid” value with β-amyloid is on record as “inhibit β-amyloid”.

In the case of `CC(=O)Oc1ccccc1C(=O)O` [aspirin, Acetylsalicylic acid], in the data set with rat brain (aspirin 30 mg/kg intraperitoneally 2 hours prior to MCAO, brains 48 hours after MCAO, vs untreated control), the “reduction of infarct size” value is recorded as “about 30%”. The “relative risk reduction of CVD” value in data set [3] is 25%.

For the molecule `COC(=O)[C@H](c1ccccc1Cl)N1CCc2sccc2C1` [clopidogrel], the “share of drug converted to active metabolites in the liver” value in data set [4] (by cytochrome P450 isoforms) is 15%. For the same molecule, the “share of prodrug converted into inactive metabolites” value in [4] (in vivo) is given as 85%.

Take `C#CCN(C)CCCOc1ccc(Cl)cc1Cl` [clorgyline]: the “ability to inhibit contraction” value in the data set with blood vessels [1] is reported as “inhibit contraction”. Besides, the “ability to dilate blood vessels” value with blood vessels [2] was “dilate blood vessels”. In addition, the “ability to stimulate NO production” value in the data set on NO production was “stimulate NO production”. For the same molecule, the “ability to inhibit β-amyloid” value in the data set with β-amyloid was “inhibit β-amyloid”.

Turning to `C#CCN(C)Cc1ccccc1` [pargyline], the “ability to inhibit contraction” value in the data set with blood vessels [1] is listed as “inhibit contraction”. In addition, the “ability to dilate blood vessels” value in the data set on blood vessels [2] is on record as “dilate blood vessels”. In addition, the “ability to stimulate NO production” value with NO production is “stimulate NO production”. Moreover, the “ability to inhibit β-amyloid” value in the data set with β-amyloid is “inhibit β-amyloid”.

`C#CCN[C@@H]1CCc2ccccc21` [rasagiline] yielded an inhibition at 100 µM in the data set with human platelets [5] of 69%. For the same molecule, the aggregation onset result with human platelets [6] (50 μM or 100 μM, collagen) was “delayed”. The peak aggregation was 35% in the data set on human platelets [6] (50 μM) and “negligible levels” in the data set on human platelets [6] (100 μM).

The record behind these values is patent US8906894B1, “Methods for preventing and treating thrombotic disorders” (priority 2000, dated 2014).
